Test results reported in US20120100186A1, “NANOPARTICULATE-BASED CONTRACEPTIVE/ANTI-HIV COMPOSITION AND METHODS” (Washington University, priority 2010, published 2012).

Tests used:
sperm = test: Sperm motility and viability (computer assisted sperm analysis); type: cell-based, Human; details: 30 minutes at 37° C., 10 million sperm per mL; FIGS. 5A-5D
Procedure: Human semen samples were obtained from the Washington University in vitro fertilization laboratory and stored at 37° C. until use. Semen was diluted in EmbryoMax® Human Tubal Fluid (HTF) (Millipore) and free melittin or melittin-coupled nanoparticles in HTF was added to achieve a final sperm concentration of 10 million sperm per mL. (For nanoparticles, samples were pipetted up and down 3 times every 10 minutes to keep the nanoparticles suspended.) Samples were incubated in 96-well plates for 30 minutes at 37° C. with shaking at 150 rpm to prevent sperm from settling. Afterwards, Viadent® stain (Hoechst 33258, Hamilton Thorne) was added to achieve a final stain concentration of 10 μg/mL and samples were incubated for an additional 5 minutes. Sperm motility and viability were determined using an IVOS® Computer Assisted Sperm Analyzer (Hamilton Thorne).

[1] = test system: Immortalized vaginal epithelial cells (VK2/E6E7); test: Vaginal epithelium toxicity (MTT viability); type: cell-based; details: concentrations of melittin as low as 1 μM, 12 hours at 37° C., FIG. 1A
Procedure: For toxicity studies, 7500 cells were added to each well of a 96-well plate and allowed to attach for 24 hours. Melittin or melittin coated PFC-NP were then added and incubated with the cells for 12 hours at 37° C. with shaking at 500 rpm. Cells were washed once with media and incubated with MTT reagent for 4 hours. The colored product was solubilized in DMSO and absorbance at 570 nm was measured using a plate reader.
In more detail, cells were detached from a T75 flask by rinsing with 2-3 mL of trypsin, followed by adding 5 mL trypsin and incubating at 37° C. for 15 minutes. Five mL DMEM-FBS is then added to stop the trypsin, and the mixture is centrifuged at 900 rpm for 5 minutes, supernatant is removed and the cells are resuspended in 5 mL of Keratinocyte-Serum Free Media (Invitrogen™). The cells are diluted to approximately 75,000 cells/mL, and 100 μL of the cell suspension is added to each well of a 96-well plate and incubated for 24 hours at 37° C. The media are replaced with 100 μL of media containing the melittin or melittin-loaded nanoparticles at various concentrations and incubated for 12 hours at 37° C. with shaking at 500 rpm. […]
To each well containing 100 μL of media, 20 μL of MTT reagent (5 mg/mL MTT in PBS) were added, and incubated for 4 hours at 37° C. […] Absorbance is read at 570 nm using a plate reader.

Compound: CC[C@H](C)[C@H](NC(=O)CN)C(=O)NCC(=O)N[C@@H](C)C(=O)N[C@H](C(=O)N[C@@H](CC(C)C)C(=O)N[C@@H](CCCCN)C(=O)N[C@H](C(=O)N[C@@H](CC(C)C)C(=O)N[C@H](C(=O)N[C@H](C(=O)NCC(=O)N[C@@H](CC(C)C)C(=O)N1CCC[C@H]1C(=O)N[C@@H](C)C(=O)N[C@@H](CC(C)C)C(=O)N[C@H](C(=O)N[C@@H](CO)C(=O)N[C@@H](Cc1c[nH]c2ccccc12)C(=O)N[C@H](C(=O)N[C@@H](CCCCN)C(=O)N[C@@H](CCCNC(=N)N)C(=O)N[C@@H](CCCCN)C(=O)N[C@@H](CCCNC(=N)N)C(=O)N[C@@H](CCC(N)=O)C(=O)N[C@@H](CCC(N)=O)C(N)=O)[C@@H](C)CC)[C@@H](C)CC)[C@@H](C)O)[C@@H](C)O)C(C)C)C(C)C [melittin]
- sperm motility (sperm): impeded
- sperm viability (sperm): impeded
- viability of vaginal epithelium cells [1]: dramatically decrease
